# According to patent US9738634B2, “Heterocyclic amide compound and herbicide” (SYNGENTA PARTICIPATIONS AG, priority 2013, dated 2017):
# Legend:
# Assay type in all cases: in vivo
# Indian mallow [1] = test: Test Example 4: weedkilling efficacy by foliar treatment; K: Indian mallow; settings: treatment dosage 315 g/ha
# How it was run: (§1)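 Seeds are spot-sown into sterilized diluvial soil and covered with about 1.5 cm of soil. After 14 days' greenhouse growth at 25 to 30° C, plants are sprayed on stems and leaves with diluted emulsion at the stated g/ha rate, then scored at 3 weeks.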
# wild oat [2] = test: Test Example 3: weedkilling efficacy through soil treatment; G: wild oat; settings: treatment dosage 315 g/ha
# How it was run: (§2)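 Crop and weed responses were judged three weeks after a uniform surface spray of the water-diluted emulsion at the given g/ha rate. Seeds sat beneath about 1.5 cm of sterilized diluvial soil, and boxes stood in a greenhouse at 25 to 30° C.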
# green foxtail [3] = test: Test Example 4: weedkilling efficacy by foliar treatment; E: green foxtail; settings: treatment dosage 315 g/ha
# How it was run: as §1
# transplanted rice = test: Test Example 1: preemergent weed treatment in the submerged state, effect on crop; a: transplanted rice; settings: treatment dosage 252 g/ha
# How it was run: (§3)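 Submerged pre-emergence treatment, water-surface application of compound emulsion at g/ha dosages; 4 cm flooded alluvial soil, weeds sown and 2.5-leaf rice transplanted same day. Rated after 3 weeks, greenhouse.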
# green foxtail [4] = test: Test Example 3: weedkilling efficacy through soil treatment; E: green foxtail; settings: treatment dosage 315 g/ha
# How it was run: as §2
# black-grass [5] = test: Test Example 3: weedkilling efficacy through soil treatment; H: black-grass; settings: treatment dosage 315 g/ha
# How it was run: as §2
# wheat [6] = test: Test Example 3: soil treatment, effect on crop; e: wheat; settings: treatment dosage 315 g/ha
# How it was run: as §2
# soybean [7] = test: Test Example 3: soil treatment, effect on crop; d: soybean; settings: treatment dosage 315 g/ha
# How it was run: as §2
# crabgrass [8] = test: Test Example 4: weedkilling efficacy by foliar treatment; D: crabgrass; settings: treatment dosage 315 g/ha
# How it was run: as §1
# beet [9] = test: Test Example 3: soil treatment, effect on crop; f: beet; settings: treatment dosage 315 g/ha
# How it was run: as §2
# oval-leafed pondweed [10] = test: Test Example 2: weedkilling efficacy, growth period weed treatment in the submerged state; C: oval-leafed pondweed; settings: treatment dosage 252 g/ha
# How it was run: (§4)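 Seedlings at 1-2 leaves in 4 cm-deep submerged alluvial soil received emulsion formulations on the water surface, dosed per hectare; effects were judged 3 weeks on.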
# fig-leafed goosefoot [11] = test: Test Example 3: weedkilling efficacy through soil treatment; M: fig-leafed goosefoot; settings: treatment dosage 315 g/ha
# How it was run: as §2
# crabgrass [12] = test: Test Example 3: weedkilling efficacy through soil treatment; D: crabgrass; settings: treatment dosage 315 g/ha
# How it was run: as §2
# bulrush [13] = test: Test Example 2: weedkilling efficacy, growth period weed treatment in the submerged state; B: bulrush; settings: treatment dosage 252 g/ha
# How it was run: as §4
# catchweed [14] = test: Test Example 3: weedkilling efficacy through soil treatment; O: catchweed; settings: treatment dosage 315 g/ha
# How it was run: as §2
# oval-leafed pondweed [15] = test: Test Example 1: weedkilling efficacy, preemergent weed treatment in the submerged state; C: oval-leafed pondweed; settings: treatment dosage 252 g/ha
# How it was run: as §3
# Italian ryegrass [16] = test: Test Example 3: weedkilling efficacy through soil treatment; I: Italian ryegrass; settings: treatment dosage 315 g/ha
# How it was run: as §2
# barnyard grass [17] = test: Test Example 2: weedkilling efficacy, growth period weed treatment in the submerged state; A: barnyard grass; settings: treatment dosage 252 g/ha
# How it was run: as §4
# black-grass [18] = test: Test Example 4: weedkilling efficacy by foliar treatment; H: black-grass; settings: treatment dosage 315 g/ha
# How it was run: as §1
# catchweed [19] = test: Test Example 4: weedkilling efficacy by foliar treatment; O: catchweed; settings: treatment dosage 315 g/ha
# How it was run: as §1
# soybean [20] = test: Test Example 4: foliar treatment, effect on crop; d: soybean; settings: treatment dosage 315 g/ha
# How it was run: as §1
# redroot pigweed [21] = test: Test Example 3: weedkilling efficacy through soil treatment; L: redroot pigweed; settings: treatment dosage 315 g/ha
# How it was run: as §2
# corn [22] = test: Test Example 4: foliar treatment, effect on crop; c: corn; settings: treatment dosage 315 g/ha
# How it was run: as §1
# Indian mallow [23] = test: Test Example 3: weedkilling efficacy through soil treatment; K: Indian mallow; settings: treatment dosage 315 g/ha
# How it was run: as §2
# wheat [24] = test: Test Example 4: foliar treatment, effect on crop; e: wheat; settings: treatment dosage 315 g/ha
# How it was run: as §1
# beet [25] = test: Test Example 4: foliar treatment, effect on crop; f: beet; settings: treatment dosage 315 g/ha
# How it was run: as §1
# barnyard grass [26] = test: Test Example 1: weedkilling efficacy, preemergent weed treatment in the submerged state; A: barnyard grass; settings: treatment dosage 252 g/ha
# How it was run: as §3
# chickweed = test: Test Example 4: weedkilling efficacy by foliar treatment; N: chickweed; settings: treatment dosage 315 g/ha
# How it was run: as §1
# redroot pigweed [27] = test: Test Example 4: weedkilling efficacy by foliar treatment; L: redroot pigweed; settings: treatment dosage 315 g/ha
# How it was run: as §1
# corn [28] = test: Test Example 3: soil treatment, effect on crop; c: corn; settings: treatment dosage 315 g/ha
# How it was run: as §2
# bulrush [29] = test: Test Example 1: weedkilling efficacy, preemergent weed treatment in the submerged state; B: bulrush; settings: treatment dosage 252 g/ha
# How it was run: as §3
# fig-leafed goosefoot [30] = test: Test Example 4: weedkilling efficacy by foliar treatment; M: fig-leafed goosefoot; settings: treatment dosage 315 g/ha
# How it was run: as §1
# Italian ryegrass [31] = test: Test Example 4: weedkilling efficacy by foliar treatment; I: Italian ryegrass; settings: treatment dosage 315 g/ha
# How it was run: as §1
# directly sown rice = test: Test Example 4: foliar treatment, effect on crop; b: directly sown rice; settings: treatment dosage 315 g/ha
# How it was run: as §1
# wild oat [32] = test: Test Example 4: weedkilling efficacy by foliar treatment; G: wild oat; settings: treatment dosage 315 g/ha
# Procedure: Testing of Weedkilling Efficacy by Foliar Treatment
# Sterilized diluvial soil was introduced into 21 cm long, 13 cm wide, 7 cm deep plastic boxes, and seeds of crabgrass, green foxtail, barnyard grass, wild oat, black-grass, Italian ryegrass, common wind-grass, Indian mallow, redroot pigweed, fig-leafed goosefoot, chickweed, catchweed, birds-eye speedwell, corn, soybean, rice, wheat, beet and rapeseed were each spot-sown, and covered with about 1.5 cm of soil, then the plants were grown in a greenhouse at 25 to 30° C.
# After they had grown for 14 days, emulsions of compounds of the present invention prepared according to compounding example 2 were diluted with water to give the specified dosages, and applied uniformly onto the stem and leaf parts with a small sprayer. 3 weeks after the pesticide treatment the effect on each type of plant was investigated on the basis of the assessment criteria of test example 1.
# A: barnyard grass, B: bulrush, C: oval-leafed pondweed, D: crabgrass, E: green foxtail, F: barnyard grass, G: wild oat, H: black-grass, I: Italian ryegrass, J: common wind-grass, K: Indian mallow, L: redroot pigweed, M: fig-leafed goosefoot, N: chickweed, O: catchweed, p: birds-eye speedwell, a: transplanted rice, b: directly sown rice, c: corn, d: soybean, e: wheat, f: beet, g: rapeseed
# Further, pesticide dosage (g/ha) indicates the concentration regulated such that treatment was with only the stated number of grams (g), when calculated per hectare (ha).
smiles,measurement,setting,value
CC1=C(c2ccccc2)C(=O)N(C(C)(C)C(=O)Nc2ccnc(C(F)(F)F)c2)CO1 [B-4-06],K (Indian mallow) weedkilling efficacy grade,Indian mallow [1],"3 (weed kill ratio 40% or more, less than 70%)"
same,G (wild oat) weedkilling efficacy grade,wild oat [2],"5 (weed kill ratio 90% or more, (practically complete withering))"
same,E (green foxtail) weedkilling efficacy grade,green foxtail [3],"5 (weed kill ratio 90% or more, (practically complete withering))"
same,a (transplanted rice) effect on crop grade,transplanted rice,0 (weed kill ratio 5% or less (practically no effect))
same,E (green foxtail) weedkilling efficacy grade,green foxtail [4],"5 (weed kill ratio 90% or more, (practically complete withering))"
same,H (black-grass) weedkilling efficacy grade,black-grass [5],"5 (weed kill ratio 90% or more, (practically complete withering))"
same,e (wheat) effect on crop grade,wheat [6],"3 (weed kill ratio 40% or more, less than 70%)"
same,d (soybean) effect on crop grade,soybean [7],0 (weed kill ratio 5% or less (practically no effect))
same,D (crabgrass) weedkilling efficacy grade,crabgrass [8],"5 (weed kill ratio 90% or more, (practically complete withering))"
same,f (beet) effect on crop grade,beet [9],"4 (weed kill ratio 70% or more, less than 90%)"
same,C (oval-leafed pondweed) weedkilling efficacy grade,oval-leafed pondweed [10],"5 (weed kill ratio 90% or more, (practically complete withering))"
same,M (fig-leafed goosefoot) weedkilling efficacy grade,fig-leafed goosefoot [11],"4 (weed kill ratio 70% or more, less than 90%)"
same,D (crabgrass) weedkilling efficacy grade,crabgrass [12],"5 (weed kill ratio 90% or more, (practically complete withering))"
same,B (bulrush) weedkilling efficacy grade,bulrush [13],"5 (weed kill ratio 90% or more, (practically complete withering))"
same,O (catchweed) weedkilling efficacy grade,catchweed [14],"4 (weed kill ratio 70% or more, less than 90%)"
same,C (oval-leafed pondweed) weedkilling efficacy grade,oval-leafed pondweed [15],"5 (weed kill ratio 90% or more, (practically complete withering))"
same,I (Italian ryegrass) weedkilling efficacy grade,Italian ryegrass [16],"5 (weed kill ratio 90% or more, (practically complete withering))"
same,A (barnyard grass) weedkilling efficacy grade,barnyard grass [17],"4 (weed kill ratio 70% or more, less than 90%)"
same,H (black-grass) weedkilling efficacy grade,black-grass [18],"5 (weed kill ratio 90% or more, (practically complete withering))"
same,O (catchweed) weedkilling efficacy grade,catchweed [19],"4 (weed kill ratio 70% or more, less than 90%)"
same,d (soybean) effect on crop grade,soybean [20],"4 (weed kill ratio 70% or more, less than 90%)"
same,L (redroot pigweed) weedkilling efficacy grade,redroot pigweed [21],"3 (weed kill ratio 40% or more, less than 70%)"
same,c (corn) effect on crop grade,corn [22],"5 (weed kill ratio 90% or more, (practically complete withering))"
same,K (Indian mallow) weedkilling efficacy grade,Indian mallow [23],"1 (weed kill ratio 5% or more, less than 20%)"
same,e (wheat) effect on crop grade,wheat [24],"1 (weed kill ratio 5% or more, less than 20%)"
same,f (beet) effect on crop grade,beet [25],"3 (weed kill ratio 40% or more, less than 70%)"
same,A (barnyard grass) weedkilling efficacy grade,barnyard grass [26],"5 (weed kill ratio 90% or more, (practically complete withering))"
same,N (chickweed) weedkilling efficacy grade,chickweed,"3 (weed kill ratio 40% or more, less than 70%)"
same,L (redroot pigweed) weedkilling efficacy grade,redroot pigweed [27],"4 (weed kill ratio 70% or more, less than 90%)"
same,c (corn) effect on crop grade,corn [28],"2 (weed kill ratio 20% or more, less than 40%)"
same,B (bulrush) weedkilling efficacy grade,bulrush [29],"5 (weed kill ratio 90% or more, (practically complete withering))"
same,M (fig-leafed goosefoot) weedkilling efficacy grade,fig-leafed goosefoot [30],"4 (weed kill ratio 70% or more, less than 90%)"
same,I (Italian ryegrass) weedkilling efficacy grade,Italian ryegrass [31],"5 (weed kill ratio 90% or more, (practically complete withering))"
same,b (directly sown rice) effect on crop grade,directly sown rice,"5 (weed kill ratio 90% or more, (practically complete withering))"
same,G (wild oat) weedkilling efficacy grade,wild oat [32],"5 (weed kill ratio 90% or more, (practically complete withering))"
